Results reported in paper PMC9481151, “Discovery of new symmetrical and asymmetrical nitrile-containing 1,4-dihydropyridine derivatives as dual kinases and P-glycoprotein inhibitors: synthesis, in vitro assays, and in silico studies” (Journal of Enzyme Inhibition and Medicinal Chemistry, 2022).

How the values were obtained:
SK-MEL-2 = experiment: NCI single dose (10 µM) SRB screen; assay type: cell-based, human; conditions: melanoma, 48 h
Candida albicans = experiment: Agar well diffusion method; conditions: for zone of inhibition at 1000 µg/mL: Candida albicans, 24 h, read-out: Diameter of inhibition zone, C. albicans; for % activity index, C. albicans: relative to clotrimazole
SK-MEL-5 = experiment: NCI single dose (10 µM) SRB screen; assay type: cell-based, human; conditions: melanoma, 48 h
NCI-H226 = experiment: NCI single dose (10 µM) SRB screen; assay type: cell-based, human; conditions: non-small cell lung cancer, 48 h
HS578T = experiment: NCI single dose (10 µM) SRB screen; assay type: cell-based, human; conditions: breast cancer, 48 h
Aspergillus flavus = experiment: Agar well diffusion method; conditions: for zone of inhibition at 1000 µg/mL: Aspergillus flavus, 24 h, read-out: Diameter of inhibition zone, A. flavus; for % activity index, A. flavus: relative to clotrimazole
ACHN = experiment: NCI single dose (10 µM) SRB screen; assay type: cell-based, human; conditions: renal cancer, 48 h
KM12 = experiment: NCI single dose (10 µM) SRB screen; assay type: cell-based, human; conditions: colon cancer, 48 h
IGROV1 = experiment: NCI single dose (10 µM) SRB screen; assay type: cell-based, human; conditions: ovarian cancer, 48 h
TK-10 = experiment: NCI single dose (10 µM) SRB screen; assay type: cell-based, human; conditions: renal cancer, 48 h
HT29 = experiment: NCI single dose (10 µM) SRB screen; assay type: cell-based, human; conditions: colon cancer, 48 h
CAKI-1 = experiment: NCI single dose (10 µM) SRB screen; assay type: cell-based, human; conditions: renal cancer, 48 h
OVCAR-5 = experiment: NCI single dose (10 µM) SRB screen; assay type: cell-based, human; conditions: ovarian cancer, 48 h
Escherichia coli = experiment: Agar well diffusion method; conditions: for zone of inhibition at 1000 µg/mL: Escherichia coli, 24 h, read-out: Diameter of inhibition zone, E. coli; for % activity index, E. coli: relative to ciprofloxacin

| SMILES | GI% SK-MEL-2 (SK-MEL-2) | melting point | zone of inhibition at 1000 µg/mL (Candida albicans) | % activity index, C. albicans (Candida albicans) | GI% SK-MEL-5 (SK-MEL-5) | GI% NCI-H226 (NCI-H226) | GI% HS578T (HS578T) | zone of inhibition at 1000 µg/mL (Aspergillus flavus) | % activity index, A. flavus (Aspergillus flavus) | GI% ACHN (ACHN) | GI% KM12 (KM12) | GI% IGROV1 (IGROV1) | GI% TK-10 (TK-10) | GI% HT29 (HT29) | GI% CAKI-1 (CAKI-1) | GI% OVCAR-5 (OVCAR-5) | zone of inhibition at 1000 µg/mL (Escherichia coli) | % activity index, E. coli (Escherichia coli) |
| --- | --- | --- | --- | --- | --- | --- | --- | --- | --- | --- | --- | --- | --- | --- | --- | --- | --- | --- |
| COC(=O)C1=C(C)NC(C)=C(C(=O)OCC(C)C)C1c1cccc(C#N)c1 (racemic) [Compound 2b, (±)-3-Isobutyl 5-methyl 4-(3-cyanophenyl)-2,6-dimethyl-1,4-dihydropyridine-3,5-dicarboxylate] | – (Only GI% ≥ 10 are shown) | 133 to 135 °C | 7 mm | 25.9% | – (Only GI% ≥ 10 are shown) | 10% | 14% | 11 mm | 44% | – (Only GI% ≥ 10 are shown) | – (Only GI% ≥ 10 are shown) | 12% | – (Only GI% ≥ 10 are shown) | – (Only GI% ≥ 10 are shown) | 28% | – (Only GI% ≥ 10 are shown) | 9 mm | 34.6% |
| COCCOC(=O)C1=C(C)NC(C)=C(C(=O)OC)C1c1cccc(C#N)c1 (racemic) [Compound 2d, (±)-3-(2-Methoxyethyl) 5-methyl 4-(3-cyanophenyl)-2,6-dimethyl-1,4-dihydropyridine-3,5-dicarboxylate] | – (Only GI% ≥ 10 are shown) | 127 to 128 °C | 12 mm | 44.4% | – (Only GI% ≥ 10 are shown) | – (Only GI% ≥ 10 are shown) | – (Only GI% ≥ 10 are shown) | 15 mm | 60% | – (Only GI% ≥ 10 are shown) | – (Only GI% ≥ 10 are shown) | – (Only GI% ≥ 10 are shown) | – (Only GI% ≥ 10 are shown) | – (Only GI% ≥ 10 are shown) | – (Only GI% ≥ 10 are shown) | – (Only GI% ≥ 10 are shown) | 10 mm | 38.5% |
| CCOC(=O)C1=C(C)NC(C)=C(C(=O)OC(C)C)C1c1cccc(C#N)c1 (racemic) [Compound 2h, (±)-3-Ethyl 5-isopropyl 4-(3-cyanophenyl)-2,6-dimethyl-1,4-dihydropyridine-3,5-dicarboxylate] | – (Only GI% ≥ 10 are shown) | 136 to 138 °C | 8 mm | 29.6% | – (Only GI% ≥ 10 are shown) | – (Only GI% ≥ 10 are shown) | – (Only GI% ≥ 10 are shown) | 12 mm | 48% | – (Only GI% ≥ 10 are shown) | – (Only GI% ≥ 10 are shown) | – (Only GI% ≥ 10 are shown) | – (Only GI% ≥ 10 are shown) | – (Only GI% ≥ 10 are shown) | 15% | – (Only GI% ≥ 10 are shown) |  | – (Values below 25 are of limited value and not shown as they refer either to inactive or non-diffusing compounds) |
| COC(=O)C1=C(C)NC(C)=C(C(=O)OC)C1c1cccc(C#N)c1 [Compound 1a, Dimethyl 4-(3-cyanophenyl)-2,6-dimethyl-1,4-dihydropyridine-3,5-dicarboxylate] | – (Only GI% ≥ 10 are shown) | 200 to 202 °C | 13 mm | 48.1% | – (Only GI% ≥ 10 are shown) | – (Only GI% ≥ 10 are shown) | – (Only GI% ≥ 10 are shown) | 15 mm | 60% | – (Only GI% ≥ 10 are shown) | – (Only GI% ≥ 10 are shown) | – (Only GI% ≥ 10 are shown) | – (Only GI% ≥ 10 are shown) | – (Only GI% ≥ 10 are shown) | – (Only GI% ≥ 10 are shown) | – (Only GI% ≥ 10 are shown) | 8 mm | 30.8% |
| CCOC(=O)C1=C(C)NC(C)=C(C(=O)OCC)C1c1cccc(C#N)c1 [Compound 1b, Diethyl 4-(3-cyanophenyl)-2,6-dimethyl-1,4-dihydropyridine-3,5-dicarboxylate] | – (Only GI% ≥ 10 are shown) | 144 to 146 °C | 15 mm | 55.5% | – (Only GI% ≥ 10 are shown) | – (Only GI% ≥ 10 are shown) | 16% | 16 mm | 64% | – (Only GI% ≥ 10 are shown) | 27% | – (Only GI% ≥ 10 are shown) | – (Only GI% ≥ 10 are shown) | – (Only GI% ≥ 10 are shown) | 31% | – (Only GI% ≥ 10 are shown) | 7 mm | 26.9% |
| CC1=C(C(=O)OC(C)C)C(c2cccc(C#N)c2)C(C(=O)OC(C)C)=C(C)N1 [Compound 1c, Diisopropyl 4-(3-cyanophenyl)-2,6-dimethyl-1,4-dihydropyridine-3,5-dicarboxylate] | – (Only GI% ≥ 10 are shown) | 124 to 125 °C | 10 mm | 37% | – (Only GI% ≥ 10 are shown) | – (Only GI% ≥ 10 are shown) | – (Only GI% ≥ 10 are shown) | 13 mm | 52% | – (Only GI% ≥ 10 are shown) | – (Only GI% ≥ 10 are shown) | – (Only GI% ≥ 10 are shown) | – (Only GI% ≥ 10 are shown) | – (Only GI% ≥ 10 are shown) | 19% | – (Only GI% ≥ 10 are shown) |  | – (Values below 25 are of limited value and not shown as they refer either to inactive or non-diffusing compounds) |
